Consider eleven compounds from patent US12344610B2, “APOL1 inhibitors and methods of use” (Maze Therapeutics, Inc., priority 2022, dated 2025).

Holding throughout (assay type): cell-based
Assay [1] relates to Trypanosoma brucei Lister 427 VSG221 with APOL1 G2 recombinant protein. In words: APOL1 G2 trypanosome cell rescue assay (Example B5). Particulars: Trypanosoma brucei, 20 h, read-out: APOL1 G2 Trypanosome Rescue EC50, Trypanosoma brucei Lister 427 VSG221 with APOL1 G2 recombinant protein, 20 hours, CellTiter-Glo; geometric mean of at least 2 assay runs; † = single assay run. An outline of the steps:
(§1)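 Recombinant APOL1 protein, dispensed from a 2 μg/mL stock, and 250 T. brucei per well were co-incubated with test compound (0.4% DMSO) for 20 h. Viability: CellTiter-Glo luminescence.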

Assay [2] has as its system HEK293 cells overexpressing APOL1 G2. The assay is described as follows: APOL1 G2 HEK293 cell rescue assay (reversal of cell death caused by overexpression of APOL1). The settings on record: Homo sapiens, HEK293, HEK293 overexpressing APOL1 G2; geometric mean of at least 2 assay runs; † = single assay run. The procedure, abridged: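 Each compound tested in duplicate wells on one plate per run, with values usually the geometric mean across at least two runs on different days, occasionally from one run only. Read-out: concentration giving half-maximal rescue of APOL1 G2 overexpression-induced death of HEK293 cells.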

Assay [3] deals with Trypanosoma brucei Lister 427 VSG221 with APOL1 G1 recombinant protein. In words: APOL1 G1 trypanosome cell rescue assay (Example B5). Particulars: Trypanosoma brucei, 20 h, read-out: APOL1 G1 Trypanosome Rescue EC50, Trypanosoma brucei Lister 427 VSG221 with APOL1 G1 recombinant protein, 20 hours, CellTiter-Glo; geometric mean of at least 2 assay runs; † = single assay run. The procedure, abridged:
as §1

Broadly, the EC50 is the concentration at which the effect is half-maximal. On to `C[C@]1(O)C[C@@H](N2C(=O)CCc3cc(OCCN4CCC5(CC4)C(=O)Nc4ccc(Cl)cc45)cnc32)C1` [Compound 275, 5-chloro-1′-[2-({7-oxo-8-[(cis)-3-hydroxy-3-methylcyclobutyl]-5,6,7,8-tetrahydro-1,8-naphthyridin-3-yl}oxy)ethyl]-1,2-dihydrospiro[indole-3,4′-piperidin]-2-one], for which the EC50 in assay [1] was determined as 0.0214 µM; in assay [2], 0.027 µM; in assay [3], 0.0736 µM.
For `CS(=O)(=O)C1(c2ncc(OCCN3CCC4(CC3)C(=O)Nc3ccc(Cl)cc34)cn2)COC1` [Compound 276, 5-chloro-1′-(2-{[2-(3-methanesulfonyloxetan-3-yl)pyrimidin-5-yl]oxy}ethyl)-1,2-dihydrospiro[indole-3,4′-piperidin]-2-one] the same measures were 0.055 µM, 0.101 µM and 0.185 µM.
As for `CS(=O)(=O)C1(c2ncc(OCCN3CCC4(CC3)C(=O)Nc3ccc(C#N)cc34)cc2F)CC1` [Compound 283, 1′-(2-{[5-fluoro-6-(1-methanesulfonylcyclopropyl)pyridin-3-yl]oxy}ethyl)-2-oxo-1,2-dihydrospiro[indole-3,4′-piperidine]-5-carbonitrile], the EC50 in assay [1] was 0.0711 µM; in assay [2] it was 0.099 µM; in assay [3], 0.235 µM.
With `CC(O)c1ncc(OCCN2CCC3(CC2)C(=O)Nc2ccc(Cl)cc23)cn1` (stereo not drawn) [Compound 284, 5-chloro-1′-(2-{[2-(1-hydroxyethyl)pyrimidin-5-yl]oxy}ethyl)-1,2-dihydrospiro[indole-3,4′-piperidin]-2-one], the EC50 in assay [1] turned out to be 0.235 µM; in assay [2] it was 0.199 µM; in assay [3], 0.943 µM.
For `C[C@]1(O)C[C@@H](N2C(=O)OCc3cc(OCCN4CCC5(CC4)C(=O)Nc4ccc(Cl)cc45)cnc32)C1` [Compound 289, 5-chloro-1′-[2-({2-oxo-1-[(cis)-3-hydroxy-3-methylcyclobutyl]-1H,2H,4H-pyrido[2,3-d][1,3]oxazin-6-yl]oxy)ethyl]-1,2-dihydrospiro[indole-3,4′-piperidin]-2-one] the same measures were 0.0157 µM, 0.0167 µM and 0.0519 µM.
For `CC1(O)CN(c2ncc(OCCN3CCC4(CC3)C(=O)Nc3ccc(Cl)cc34)cn2)C1` [Compound 300, 5-chloro-1′-(2-{[2-(3-hydroxy-3-methylazetidin-1-yl)pyrimidin-5-yl]oxy}ethyl)-1,2-dihydrospiro[indole-3,4′-piperidin]-2-one] the same measures were 0.16 µM, 0.1 µM and 0.543 µM.
The matching figures for `O=C1Nc2ccc(Cl)cc2C12CCN(CCOc1cnc(N3CC(O)C3)nc1)CC2` [Compound 301, 5-chloro-1′-(2-{[2-(3-hydroxyazetidin-1-yl)pyrimidin-5-yl]oxy}ethyl)-1,2-dihydrospiro[indole-3,4′-piperidin]-2-one]: 0.134 µM, 0.086 µM and 0.447 µM.
As for `CS(=O)(=O)C1CN(c2ncc(OCCN3CCC4(CC3)C(=O)Nc3ccc(Cl)cc34)cn2)C1` [Compound 302, 5-chloro-1′-(2-{[2-(3-methanesulfonylazetidin-1-yl)pyrimidin-5-yl]oxy}ethyl)-1,2-dihydrospiro[indole-3,4′-piperidin]-2-one], the EC50 is 0.142 µM in assay [1], 0.0981 µM in assay [2] and 0.498 µM in assay [3].
As to `CC(C)(O)c1ncc(OCCN2CCC3(CC2)C(=O)Nc2ccc(Cl)cc23)cn1` [Compound 305, 5-chloro-1′-(2-{[2-(2-hydroxypropan-2-yl)pyrimidin-5-yl]oxy}ethyl)-1,2-dihydrospiro[indole-3,4′-piperidin]-2-one], the EC50 amounted to 0.0804 µM in assay [1], 0.0854 µM in assay [2] and 0.265 µM in assay [3].
Turning to `CC1(O)CN(c2nccc3cc(OCCN4CCC5(CC4)C(=O)Nc4ccc(Cl)cc45)cnc23)C1` [Compound 306, 5-chloro-1′-(2-{[8-(3-hydroxy-3-methylazetidin-1-yl)-1,7-naphthyridin-3-yl]oxy}ethyl)-1,2-dihydrospiro[indole-3,4′-piperidin]-2-one], the EC50 in assay [1] is 0.015 µM; in assay [2], 0.11 µM; in assay [3] it was 0.0508 µM.
For `O=C1Nc2ccc(Cl)cc2C12CCN(CCOc1cnc3c(N4CC(O)C4)nccc3c1)CC2` [Compound 314, 5-chloro-1′-(2-{[8-(3-hydroxyazetidin-1-yl)-1,7-naphthyridin-3-yl]oxy}ethyl)-1,2-dihydrospiro[indole-3,4′-piperidin]-2-one] the same measures were 0.0115 µM, 0.0243 µM and 0.0349 µM.
